Tests used:
[1] = cited from earlier work
[2] = Solubility at syrup stage (lemon lime and cola beverage syrup, 5.5+1); format: physicochemical
Experimental: The ingredients were dissolved in filtered water to constitute a syrup, then the final beverage was made by weighing the appropriate syrup amount and adding carbonated water using a ratio of 1-part syrup+5.5 parts carbonated water. Final beverages were filled in 300 ml glass bottles then aged for 3 days at 35° C. before they were cooled and served cold (4° C.). The control with Reb-M was made by heating water up to around 47° C. then dissolving Reb-M. After complete dissolution, the concentrated Reb-M solution was cooled down to ambient temperature before the rest of the ingredients were added.

[3] = Sensory evaluation of beverages by expert panelists; format: in vivo; details: 480 ppm steviol glycosides in finished beverage; at least 5 expert panelists, blind; carbonated beverages tasted at 4° C.
Experimental: Steviol glycosides with high purity (>95%) namely Rebaudioside A, B, D, M, Glycosylated steviol glycoside (GSG) were evaluated in acidified citric buffer, a lemon lime and a cola carbonated beverage at concentration of 480 ppm in finished beverage.
The beverages were evaluated blindly by at least 5 expert panelists who work and taste steviol glycosides sweetened beverages daily. Samples were coded and randomly presented to the panelists. Panelists were instructed to eat an unsalted cracker and rinse the mouth with water before and in between samples. The maximum samples for each session was set at 5 samples to avoid fatigue. For each sample, panelists were instructed to take 3 sips, then write down their evaluation comments. Mock beverages were tasted at ambient temperature while carbonated beverages (diet lemon lime and cola) were tasted at 4° C.

| solubility at syrup stage [2] [%] | SMILES | aqueous solubility [1] | Panelist Rating (1 = most preferred, 6 = least preferred) [3] |
| --- | --- | --- | --- |
|  | C=C1C[C@@]23CC[C@H]4[C@@](C)(CCC[C@@]4(C)C(=O)O[C@@H]4O[C@H](CO)[C@@H](O)[C@H](O)[C@H]4O)[C@@H]2CC[C@]1(O[C@@H]1O[C@H](CO)[C@@H](O)[C@H](O[C@@H]2O[C@H](CO)[C@@H](O)[C@H](O)[C@H]2O)[C@H]1O[C@@H]1O[C@H](CO)[C@@H](O)[C@H](O)[C@H]1O)C3 [Rebaudioside A] | about 0.8 wt % |  |
| 0.1 | C=C1C[C@@]23CC[C@H]4[C@@](C)(CCC[C@@]4(C)C(=O)O[C@@H]4O[C@H](CO)[C@@H](O)[C@H](O[C@@H]5O[C@H](CO)[C@@H](O)[C@H](O)[C@H]5O)[C@H]4O[C@@H]4O[C@H](CO)[C@@H](O)[C@H](O)[C@H]4O)[C@@H]2CC[C@]1(O[C@@H]1O[C@H](CO)[C@@H](O)[C@H](O[C@@H]2O[C@H](CO)[C@@H](O)[C@H](O)[C@H]2O)[C@H]1O[C@@H]1O[C@H](CO)[C@@H](O)[C@H](O)[C@H]1O)C3 [Reb-M, Rebaudioside M] |  | 2 |
